Earlier results on one molecule are cited in US20250000823A1, “METHODS AND COMPOSITIONS FOR TREATING CONDITIONS ASSOCIATED WITH CENTRAL HYPOVENTILATION” (APNIMED, INC. (DELAWARE), priority 2021, published 2025).

This series deals with patients with OHS. As to conditions: acetazolamide alone.

As for `CC(=O)Nc1nnc(S(N)(=O)=O)s1` [Acetazolamide, N-(5-Sulfamoyl-1,3,4-thiadiazol-2-yl)acetamide], the alveolar ventilation result is “improve alveolar ventilation”.
